Source: patent publication US9943506B2, “BCL6 inhibitors as anticancer agents” (Cornell University, priority 2013, dated 2018)
Where two headings read alike, the source gives them in different places.

Assays:
Ly10 DLBCL cells = test: Growth inhibition of DLBCL cells, Ly10; format: cell-based; settings: Table 9, Bcl6 dependent, read-out: GI 50 Ly10
Experimental: (§1) 50,000 cells per well were treated for 48 hours with different concentrations of the compounds in 96 well plates, using DMSO as a control. Then, viability was determined with Cell Titer Blue™ (Promega) and growth inhibition was calculated as the percentage of viable cells with respect to cells treated with DMSO alone. GI50 values were determined by dose-response curves.
(§2) 293T cells were grown in Dulbecco's modified Eagles medium supplemented with 10% fetal bovine serum (FBS) (Gemini Bio-Products, Woodland, Calif.) and 1% penicillin-streptomycin. DLBCL cell lines OCI-Ly1, OCI-Ly1-B50, OCI-Ly7, OCI-Ly10 and OCI-Ly19 were grown in 80% Iscove's medium, 20% FBS and penicillin G/streptomycin. DLBCL cell lines Toledo, Farage, SU-DHL4, DOHH-2, SC-1, RCK8, TMD8, HBL-1, Ly3, Karpas 422 and SU-DHL6 were cultured in 90% RPMI medium, 10% FBS, 2 mM glutamine, 10 mM Hepes and penicillin G/streptomycin. All cell lines were cultured at 37° C. in a humidified atmosphere of 5% CO2.

Ly7 DLBCL cells = test: Growth inhibition of DLBCL cells, Ly7; format: cell-based
Experimental: as §1, §2

Toledo DLBCL cells = test: Growth inhibition of DLBCL cells, Toledo; format: cell-based; settings: Homo sapiens
Experimental: as §1, §2

WSU-DLCL2 DLBCL cells = test: Growth inhibition of DLBCL cells, WSU-DLCL2; format: cell-based; settings: Homo sapiens, WSUDLCL2, Bcl6 independent, read-out: GI 50 WSUDLCL2
Experimental: as §1

Ly1 DLBCL cells = test: Growth inhibition of DLBCL cells, Ly1; format: cell-based; settings: Bcl6 dependent, read-out: GI 50 Ly1
Experimental: as §1, §2

Ly1B50 DLBCL cells = test: Growth inhibition of DLBCL cells, Ly1B50; format: cell-based; settings: Bcl6 independent, read-out: GI 50 Ly1B50
Experimental: as §1, §2

Ly3 DLBCL cells = test: Growth inhibition of DLBCL cells, Ly3; format: cell-based; settings: Bcl6 dependent, read-out: GI 50 Ly3
Experimental: as §1, §2

Karpas 422 DLBCL cells = test: Growth inhibition of DLBCL cells, Karpas 422; format: cell-based; settings: Homo sapiens, read-out: GI 50 K422
Experimental: as §1, §2

SUDHL6 DLBCL cells = test: Growth inhibition of DLBCL cells, SUDHL6; format: cell-based; settings: Homo sapiens, SU-DHL-6
Experimental: as §1, §2

Ly4 DLBCL cells = test: Growth inhibition of DLBCL cells, Ly4; format: cell-based; settings: Table 9; Bcl6 independent; read-out: GI 50 Ly4
Experimental: as §1

BCL6-BTB = BCL6-BTB (Homo sapiens, UniProt P41182); test: MicroScale Thermophoresis binding to BCL6-BTB; settings: Table 10
Experimental: BCL6 is also required for normal development of germinal center (GC) B-cells.
Recombinant BCL6-BTB was labeled using the RED-NHS Labeling kit (NanoTemper Technologies). […] The label:protein ratio was determined using photometry at 650 nm and Bradford reagent. […] The labeled BCL6-BTB was adjusted to 400 nM with PBS (Thermo) buffer supplemented with 0.05% Tween-80 (Fisher scientific). […] After 10 min incubation, approximately 4 μL of each solution was filled into Monolith NT Standard Treated Capillaries (NanoTemper Technologies GmbH). Thermophoresis was measured using a Monolith NT.115 instrument (NanoTemper Technologies GmbH) at an ambient temperature of 25° C. with 5 s/30 s/5 s laser off/on/off times, respectively. Instrument parameters were adjusted with 90% LED power and 40% MST power. Data of three independent experiments were analyzed (NT.Analysis software version 1.5.41, NanoTemper Technologies) using the signal from Thermophoresis.

[1] = Table 9, Bcl6 dependent, read-out: GI 50 Ly7
[2] = Table 9, Bcl6 independent, read-out: GI 50 Toledo
[3] = Table 9, Bcl6 dependent, read-out: GI 50 SUDHL6
[4] = Table 10, BCL6 dependent, read-out: GI50 SUDHL6
[5] = Table 4, Bcl6 dependent, read-out: GI 50 Ly7
[6] = Table 4, Bcl6 independent, read-out: GI 50 Toledo
[7] = Table 4, Bcl6 dependent, read-out: GI 50 SUDHL6

Row | GI50 (Karpas 422 DLBCL cells; Table 9, Bcl6 independent) [µM] | GI50 (SUDHL6 DLBCL cells; [3]) [µM] | GI50 (SUDHL6 DLBCL cells; [4]) [µM] | GI50 (Karpas 422 DLBCL cells; Table 4, Bcl6 independent) [µM] | GI50 (SUDHL6 DLBCL cells; [7]) [µM] | Compound | GI50 (Ly10 DLBCL cells) [µM] | GI50 (Ly7 DLBCL cells; [1]) [µM] | GI50 (Ly7 DLBCL cells; Table 10, BCL6 dependent) [µM] | GI50 (Toledo DLBCL cells; [2]) [µM] | GI50 (Toledo DLBCL cells; Table 10, BCL6 independent) [µM] | GI50 (WSU-DLCL2 DLBCL cells; Table 9) [µM] | GI50 (Ly1 DLBCL cells; Table 9) [µM] | GI50 (Ly1B50 DLBCL cells; Table 9) [µM] | GI50 (Ly3 DLBCL cells; Table 9) [µM] | GI50 (Ly7 DLBCL cells; [5]) [µM] | GI50 (Toledo DLBCL cells; [6]) [µM] | GI50 (WSU-DLCL2 DLBCL cells; Table 4) [µM] | GI50 (Ly1 DLBCL cells; Table 4) [µM] | GI50 (Ly1B50 DLBCL cells; Table 4) [µM] | GI50 (Ly3 DLBCL cells; Table 4) [µM] | also measured
1 | 38 | 1 | 42 ± 10 | – | – | O=C(CN1C(=O)C(=O)c2cc(Cl)ccc21)OCc1ccc(Cl)cc1 [Compound 355] | 62 | 45 | 43 ± 3 | 35 | 45 ± 7 | 52 | 37 | 55 | 54 | – | – | – | – | – | – | GI50 (Ly4 DLBCL cells): 81 µM
2 | 58 | 1 | 22 ± 3 | – | – | O=C(CN1C(=O)C(=O)c2cc(Cl)ccc21)OCc1ccc(F)cc1 [Compound 357] | 60 | 25 | 30 ± 10 | 51 | 50 ± 1 | 100 | 81 | 56 | 79 | – | – | – | – | – | – | GI50 (Ly4 DLBCL cells): > 125 µM
3 | > 125 | 2 | 27 ± 4 | – | – | O=C(CN1C(=O)C(=O)c2cc(Cl)ccc21)OCc1cccc(F)c1 [Compound 358] | > 125 | 20 | 40 ± 10 | 69 | 82 ± 20 | > 125 | > 125 | > 125 | > 125 | – | – | – | – | – | – | GI50 (Ly4 DLBCL cells): > 125 µM
4 | – | – | 15 ± 7 | – | – | O=C(CN1C(=O)C(=O)c2cc(Cl)ccc21)OCc1ccsc1 [Compound 367] | – | – | 22 ± 4 | – | 53 ± 10 | – | – | – | – | – | – | – | – | – | – | Kd (BCL6-BTB): 324 ± 34 µM
5 | – | – | – | > 125 | 48 ± 17 | Cc1cccc(COC(=O)CN2C(=O)/C(=C3\SC(=S)N(CCC(=O)O)C3=O)c3cc(Cl)ccc32)c1 [Compound 374] | – | – | – | – | – | – | – | – | – | > 125 | > 125 | 99 ± 20 | > 125 | > 125 | > 125 | –
6 | – | – | – | > 125 | 29 ± 14 | O=C(O)CCN1C(=O)/C(=C2/C(=O)N(CC(=O)OCc3ccc(C(F)(F)F)cc3)c3ccc(Cl)cc32)SC1=S [Compound 375] | – | – | – | – | – | – | – | – | – | > 125 | > 125 | > 125 | > 125 | > 125 | > 125 | –
7 | – | – | – | > 125 | 104 | O=C(O)CCN1C(=O)/C(=C2/C(=O)N(CC(=O)OCc3ccc(F)cc3)c3ccc(Cl)cc32)SC1=S [Compound 377] | – | – | – | – | – | – | – | – | – | > 125 | > 125 | > 125 | > 125 | > 125 | > 125 | –
8 | – | – | – | > 125 | 53.4 | O=C(O)CCN1C(=O)/C(=C2/C(=O)N(CC(=O)OCc3cccc(F)c3)c3ccc(Cl)cc32)SC1=S [Compound 378] | – | – | – | – | – | – | – | – | – | > 125 | > 125 | > 125 | > 125 | > 125 | > 125 | –
9 | – | – | – | 69 ± 4 | 18 ± 7 | O=C(O)CCN1C(=O)/C(=C2/C(=O)N(CC(=O)OCc3cccc(C(F)(F)F)c3)c3ccc(Cl)cc32)SC1=S [Compound 380] | – | – | – | – | – | – | – | – | – | 94 ± 19 | 93 ± 23 | 67 ± 12 | 106 ± 20 | 68 | 71 ± 18 | –
10 | – | – | – | > 125 | 22 ± 8 | C[C@@H](OC(=O)CN1C(=O)/C(=C2\SC(=S)N(CCC(=O)O)C2=O)c2cc(Cl)ccc21)c1ccccc1 [Compound 381] | – | – | – | – | – | – | – | – | – | > 125 | > 125 | > 125 | > 125 | > 125 | > 125 | –
